Test results as given in patent US20130177609A1, “Compositions and Methods for Increasing Bioavailability of Topical Ophthalmic Drugs” (priority 2008, published 2013).
Values after ≈ are worked out from the molar mass of the structure shown.

Key:
[1] = Example 1: ocular tissue pharmacokinetics after topical dose, increasing dose volume at constant drug concentration; type: in vivo, pigmented male rabbits (Dutch Belted); conditions: for AUC(0-t) / DNAUC / Cmax / Tmax: topical ocular; for Cmax / Tmax: male, Dutch Belted, rabbit, topical or ocular
Procedure: An aqueous suspension comprising 0.1 mg/mL of the compound having Formula III (BOL-303242-X), 100 mg/mL PEG 3350, and 10 mg/mL Tween® 80 was prepared substantially as disclosed above.
This study was carried out using a non-crossover design and a total of 84 naive pigmented male rabbits (Dutch Belted). Each rabbit was arbitrarily assigned to one of three dose groups.
On the day of dosing, each animal received a topical ocular dose of the suspension. Animals in Group 1 received a […] instillation, Group 2 received a 30-μL instillation and Group 3 received a 100-μL instillation. The target dose levels for these groups were 1, 3 and 10 μg/eye, respectively. The test composition was shipped to the test site as a ready-to-use suspension.
At predetermined time intervals after dosing, rabbits (four per collection time) were euthanized and the eyes enucleated and dissected. Samples of tear, conjunctiva, cornea, aqueous humor and iris/ciliary body were obtained from each animal and frozen until being shipped on dry ice to the analytical laboratory. Samples were collected at 0.0833, 0.25, 0.5, 1, 2, 4 and 6 hour after dosing. Concentrations of BOL-303242-X in ocular tissue samples were determined by LC/MS/MS. One or more samples of each tissue had concentrations that were below the lower limit of quantitation (“LLQ”). These samples were assigned a value of 0.5 times the LLQ for the purpose of calculating a mean concentration for pharmacokinetic (“PK”) analysis. In addition, the BOL-303242-X concentration measured in one tear sample collected at 6 hour was more than 100-fold higher than any other 6-hour sample for the same dose group. This value was considered to be an outlier, and was not included in any calculations.
Non-compartmental methods were used for pharmacokinetic analysis of concentration versus time data (WinNonlin version 5.2). Due to the destructive sampling regimen employed in this study average composite data were used in the PK analysis.

[2] = Solubility in water of compound having Formula III; type: physicochemical; conditions: pH 7, water, pH of about 7
[3] = Conjunctiva, 10 μL of 0.1 mg/mL suspension (1 μg)
[4] = Conjunctiva, 30 μL of 0.1 mg/mL suspension (3 μg)
[5] = Conjunctiva, 100 μL of 0.1 mg/mL suspension (10 μg)
[6] = Cornea, 10 μL of 0.1 mg/mL suspension (1 μg)
[7] = Cornea, 30 μL of 0.1 mg/mL suspension (3 μg)
[8] = Cornea, 100 μL of 0.1 mg/mL suspension (10 μg)
[9] = Iris/Ciliary Body, 10 μL of 0.1 mg/mL suspension (1 μg)
[10] = Iris/Ciliary Body, 30 μL of 0.1 mg/mL suspension (3 μg)
[11] = Iris/Ciliary Body, 100 μL of 0.1 mg/mL suspension (10 μg)
[12] = Tear, 10 μL of 0.1 mg/mL suspension (1 μg)
[13] = Tear, 30 μL of 0.1 mg/mL suspension (3 μg)
[14] = Tear, 100 μL of 0.1 mg/mL suspension (10 μg)
[15] = 1 ug, Conjunctiva, 10 μL of 0.1 mg/mL suspension (1 μg)
[16] = 1 ug, Cornea, 10 μL of 0.1 mg/mL suspension (1 μg)
[17] = 1 ug, Iris/Ciliary Body, 10 μL of 0.1 mg/mL suspension (1 μg)
[18] = 1 ug, Tear, 10 μL of 0.1 mg/mL suspension (1 μg)
[19] = 3 ug, Conjunctiva, 30 μL of 0.1 mg/mL suspension (3 μg)
[20] = 3 ug, Cornea, 30 μL of 0.1 mg/mL suspension (3 μg)
[21] = 3 ug, Iris/Ciliary Body, 30 μL of 0.1 mg/mL suspension (3 μg)
[22] = 3 ug, Tear, 30 μL of 0.1 mg/mL suspension (3 μg)
[23] = 10 ug, Conjunctiva, 100 μL of 0.1 mg/mL suspension (10 μg)
[24] = 10 ug, Cornea, 100 μL of 0.1 mg/mL suspension (10 μg)
[25] = 10 ug, Iris/Ciliary Body, 100 μL of 0.1 mg/mL suspension (10 μg)
[26] = 10 ug, Tear, 100 μL of 0.1 mg/mL suspension (10 μg)

Cc1ccc2c(NCC(O)(CC(C)(C)c3cc(F)cc4c3OCC4)C(F)(F)F)cccc2n1 (centres unmarked) [BOL-303242-X]
AUC(0-t) [1, 3]: 245 ng·h/g
DNAUC [1, 3]: 245 ng*hr/g ÷ μg dose
AUC(0-t) [1, 4]: 487 ng·h/g
DNAUC [1, 4]: 162 ng*hr/g ÷ μg dose
AUC(0-t) [1, 5]: 741 ng·h/g
DNAUC [1, 5]: 74.1 ng*hr/g ÷ μg dose
AUC(0-t) [1, 6]: 270 ng·h/g
DNAUC [1, 6]: 270 ng*hr/g ÷ μg dose
AUC(0-t) [1, 7]: 634 ng·h/g
DNAUC [1, 7]: 211 ng*hr/g ÷ μg dose
AUC(0-t) [1, 8]: 955 ng·h/g
DNAUC [1, 8]: 95.5 ng*hr/g ÷ μg dose
AUC(0-t) [1, 9]: 32.0 ng·h/g
DNAUC [1, 9]: 32.0 ng*hr/g ÷ μg dose
AUC(0-t) [1, 10]: 33.8 ng·h/g
DNAUC [1, 10]: 11.3 ng*hr/g ÷ μg dose
AUC(0-t) [1, 11]: 30.5 ng·h/g
DNAUC [1, 11]: 3.05 ng*hr/g ÷ μg dose
AUC(0-t) [1, 12]: 8870 ng·h/g
DNAUC [1, 12]: 8870 ng*hr/g ÷ μg dose
AUC(0-t) [1, 13]: 12600 ng·h/g
DNAUC [1, 13]: 4200 ng*hr/g ÷ μg dose
AUC(0-t) [1, 14]: 25600 ng·h/g
DNAUC [1, 14]: 2560 ng*hr/g ÷ μg dose
Cmax ([1]; 1 ug, Aqueous Humor, 10 μL of 0.1 mg/mL suspension (1 μg)): < 1 ng/mL
Cmax [1, 15]: 292 ± 137 ng/g
Tmax [1, 15]: 4.98 min
Cmax [1, 16]: 288 ± 116 ng/g
Tmax [1, 16]: 15 min
Cmax [1, 17]: 19.6 ± 29.8 ng/g
Tmax [1, 17]: 60 min
Cmax [1, 18]: 16300 ± 7000 ng/g
Tmax [1, 18]: 4.98 min
Cmax ([1]; 3 ug, Aqueous Humor, 30 μL of 0.1 mg/mL suspension (3 μg)): < 1 ng/mL
Cmax [1, 19]: 684 ± 446 ng/g
Tmax [1, 19]: 4.98 min
Cmax [1, 20]: 716 ± 234 ng/g
Tmax [1, 20]: 4.98 min
Cmax [1, 21]: 13.1 ± 19 ng/g
Tmax [1, 21]: 120 min
Cmax [1, 22]: 28100 ± 11300 ng/g
Tmax [1, 22]: 15 min
Cmax ([1]; 10 ug, Aqueous Humor, 100 μL of 0.1 mg/mL suspension (10 μg)): < 1 ng/mL
Cmax [1, 23]: 1050 ± 531 ng/g
Tmax [1, 23]: 4.98 min
Cmax [1, 24]: 955 ± 619 ng/g
Tmax [1, 24]: 4.98 min
Cmax [1, 25]: 11.3 ± 8.05 ng/g
Tmax [1, 25]: 60 min
Cmax [1, 26]: 36700 ± 21400 ng/g
Tmax [1, 26]: 15 min
increase in exposure with increasing instillation volume ([1]; tear, cornea and conjunctiva, 10, 30, 100 μL of 0.1 mg/mL): less than proportional to the administered dose/volume
solubility [2]: ~0.2 µg/mL (≈ 0.432 µM)
